# Results reported in patent US11564913B2, “Compositions and methods for treating cancer” (Children's Hospital Medical Center, priority 2019, dated 2023).
# Key:
# Assay in all cases: Spheroid formation, hanging drop method
# Assay type in all cases: cell-based
# [1] = test system: MCF7 cells; conditions: 1 μM
# Procedure: (§1) FIG. 6: IODVA1 inhibits cell-substratum and cell-cell interactions. (A) IODVA1 impedes spreading of MCF7 and MDA-MB-231 cells on fibronectin. MCF7, T47D, and MDA-MB-231 cells were incubated on fibronectin coated coverslips for 10 min, then further incubated with the indicated concentrations of IODVA1 for 30 min in serum-free media, fixed and observed by bright field microscopy. Areas of single cells were calculated from 6 random fields (no less than 300 cells total per treatment group). Results shown are mean±s.e.m. of a single experiment and are representative of three independent experiments. (B) Effects of IODVA1 treatment on spheroid formation in MCF10A, MCF7, T47D, and MDA-MB-231 cells. Left panel—representative bright field images of hanging drop cultures of MCF10A, MCF7, T47D, and MDA-MB-231 cells grown in the absence (0 μM) and presence of IODVA1 (1 μM) prior to and post mechanical pipetting (trituration). Scale bar=200 μm. Right panel, changes in spheroid/aggregate size due to IODVA1 treatment indicated by the diameter of the spheroids. Results shown are mean±stdev, N=15. (C) IODVA1 treatment reduces proliferation capacity in adhesion-free environment. MCF7, T47D, and MDA-MB-231 cells were grown in complete media in the presence of IODVA1 or vehicle control in ultra-low attachment plates for 5 days. Aggregates and spheroids were dissociated with accutase and trituration, and the number of live cells was determined by trypan blue exclusion. Results shown are combined mean±stdev of two independent experiments. n.s.—not significant, *-p<0.05, **-p<0.01, ***-p<0.001, ****-p<0.0001.
# (§2) In vitro 3D assays, such as spheroid formation, serve as an intermediate between 2D (monolayer) cellular assays and in vivo animal models. Spheroid formation is mediated by matrix development and remodeling and changes in the cytoskeleton and cell-cell contacts and adhesion. To evaluate the effect of IODVA1 on spheroid formation, single cell suspension were plated in complete media containing vehicle control or IODVA1 at 0.1-3 μM range using the hanging drop and ultra-low attachment (ULA) methods (Foty R. 2011). […]
# (§3) Spheroids were formed by the hanging drop method or using ultra-low attachment (ULA) plates (Corning). […] Spheroid formation was monitored daily and imaged using EVOS microscope (Life Technologies). For assessment of attachment-free proliferation, the contents of the well were transferred into an Eppendorf tube, centrifuged at 100×g for 5 min, dissociated into a single cell suspension using trituration and Accutase (Invitrogen) treatment at room temperature and counted using trypan blue exclusion.
# [2] = test system: MCF10A cells
# Procedure: as §1, §2, §3
# [3] = test system: T47D cells; conditions: 1 μM
# Procedure: as §1, §2, §3
smiles,measurement,setting,value
"OC1(c2ccccn2)N=C(Nc2nc3ccccc3[nH]2)N=C1c1ccccn1 (stereo not shown) [IODVA1, (Z)-2-((1H-benzo[d]imidazol-2-yl)imino)-4,5-di(pyridin-2-yl)-2,5-dihydro-1H-imidazol-5-ol]",spheroids after mechanical disruption by pipetting,[1],complete dissociation
same,spheroid size,[1]; 96 h,formed smaller spheroids
same,effect on spheroids,[2],No effect
same,spheroid formation,[3],failed to form packed spheroids
